Test results: ChEMBL document CHEMBL1201862, “PubChem BioAssay data set” (2004)
Activity calls are given as the source filed them.

How the values were obtained:
[1] = target: G-protein coupled receptor 35 (Homo sapiens, UniProt Q9HC97); assay: SAR Analysis for the identification of Selective Antagonists of ERK1/2 Activity in GPR35-Overexpressing U2OS Cells. [Related pubchem assays: 2079, 2058 ]; type: functional, cell-based
[2] = target: G-protein coupled receptor 55 (Homo sapiens, UniProt Q9Y2T6); assay: blockers of GPR55 signalling, imaged – imaging, image-based, counter-screen for GPR35 antagonist project, SAR follow-up (AID 2397); type: functional
Sequence of G-protein coupled receptor 55 (Q9Y2T6 whole entry): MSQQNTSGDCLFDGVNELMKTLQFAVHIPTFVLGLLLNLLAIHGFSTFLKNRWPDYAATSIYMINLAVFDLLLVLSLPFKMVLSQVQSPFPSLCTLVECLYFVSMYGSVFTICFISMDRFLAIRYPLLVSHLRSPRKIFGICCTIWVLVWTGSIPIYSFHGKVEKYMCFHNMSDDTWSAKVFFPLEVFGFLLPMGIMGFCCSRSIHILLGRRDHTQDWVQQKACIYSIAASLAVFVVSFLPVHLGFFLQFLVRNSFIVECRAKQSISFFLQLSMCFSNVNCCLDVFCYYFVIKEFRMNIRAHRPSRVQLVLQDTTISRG

[3] = Luminescence Cell-Based Dose Retest to Confirm Inhibitors of Cancer Stem Cells. [Related pubchem assays (depositor defined):AID2717, AID2721]; type: functional; details: Homo sapiens
[4] = viability loss of HMLE_sh_eGFP cells – cell-based, luminescence, counter-screen for HMLE_sh_ECad selective toxicity project, dose response (AID 463074); type: functional, Homo sapiens;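 also: HMLE human mammary epithelial cells expressing control shRNA against eGFP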
Trypsin = Trypsin (Sus scrofa, UniProt P00761); assay: trypsin protease activity blockade – biochemical, quenched peptide fluorescence, cherry-pick, selectivity assay for Rce1 protease inhibitor project, dose response (AID 488789)
Sequence of Trypsin (P00761 whole entry): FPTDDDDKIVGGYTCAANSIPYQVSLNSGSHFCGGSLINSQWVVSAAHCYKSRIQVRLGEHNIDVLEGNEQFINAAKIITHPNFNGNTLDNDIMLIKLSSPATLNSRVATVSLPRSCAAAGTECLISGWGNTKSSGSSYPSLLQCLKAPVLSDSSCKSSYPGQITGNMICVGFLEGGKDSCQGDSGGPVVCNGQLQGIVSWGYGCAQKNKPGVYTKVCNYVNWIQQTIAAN

CAAX prenyl protease 2 = target: T1, CAAX prenyl protease 2 (Saccharomyces cerevisiae S288c, UniProt Q03530); type: biochemical
T1 sequence (Q03530 whole entry): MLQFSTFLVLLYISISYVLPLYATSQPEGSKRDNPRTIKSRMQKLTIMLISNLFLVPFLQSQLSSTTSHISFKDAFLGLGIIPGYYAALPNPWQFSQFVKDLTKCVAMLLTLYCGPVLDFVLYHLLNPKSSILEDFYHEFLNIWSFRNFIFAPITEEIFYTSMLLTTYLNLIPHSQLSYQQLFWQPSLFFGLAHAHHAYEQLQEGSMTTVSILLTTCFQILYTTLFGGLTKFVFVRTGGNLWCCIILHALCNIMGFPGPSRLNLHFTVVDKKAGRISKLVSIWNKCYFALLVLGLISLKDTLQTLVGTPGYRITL

CAAX prenyl protease 1 = CAAX prenyl protease 1 (Saccharomyces cerevisiae S288c, UniProt P47154); assay: yeast CAAX protease Ste24 inhibition – biochemical, S. cerevisiae, plate reader, cherry-pick, dose response (AID 488815)
Sequence of CAAX prenyl protease 1 (P47154 whole entry): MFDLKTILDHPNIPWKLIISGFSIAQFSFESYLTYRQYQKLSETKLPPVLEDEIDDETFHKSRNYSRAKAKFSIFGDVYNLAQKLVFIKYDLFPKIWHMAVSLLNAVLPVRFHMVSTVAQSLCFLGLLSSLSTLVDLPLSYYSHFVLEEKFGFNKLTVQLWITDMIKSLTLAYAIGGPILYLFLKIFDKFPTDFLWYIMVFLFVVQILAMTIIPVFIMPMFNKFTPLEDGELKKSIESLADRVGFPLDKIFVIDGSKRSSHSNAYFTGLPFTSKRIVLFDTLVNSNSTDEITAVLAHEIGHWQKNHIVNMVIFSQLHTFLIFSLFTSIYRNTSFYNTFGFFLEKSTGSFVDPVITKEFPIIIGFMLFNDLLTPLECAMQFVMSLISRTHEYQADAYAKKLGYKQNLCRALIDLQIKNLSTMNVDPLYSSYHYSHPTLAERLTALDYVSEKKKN

[5] = luciferase reporter signal suppression in cells – H4 neuroglioma cells, luminescence, dose response (AID 1990); type: functional, cell-based
BJ [6] = assay: BJ-TERT fibroblast viability loss – cell-based, RAS-independent, luminescence, dose response (AID 1933); type: functional; details: Homo sapiens
cells [7] = type: functional, cell-based
[8] = Luminescence Cell-Based Dose Response HTS to Identify Inhibitors of 5'UTR Stem-Loop Driven Prion Protein mRNA Translation in H4 Neuroglioblastoma Cells. [Related pubchem assays: 1827 (Project Summary), 1813 (Primary HTS)]; type: functional
[9] = alpha-synuclein stem-loop luciferase translation blockers – H4 neuroglioma cells, luminescence, confirmation (AID 1988); type: functional, cell-based
BJ [10] = assay: cells; type: functional, cell-based; details: Homo sapiens
cells [11] = type: functional, cell-based; remark: listed apart in the source
BJ [12] = assay: BJ-TERT-LT-ST fibroblast viability loss – cell-based, RAS-independent, luminescence, dose response (AID 1935); type: functional; details: Homo sapiens;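 also: BJ fibroblasts immortalized with TERT plus LT and ST oncogenes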
[13] = DRD fibroblast viability loss – cell-based, non-viral oncogenic, luminescence, dose response (AID 1934); type: functional; details: Homo sapiens
Exodeoxyribonuclease V = Exodeoxyribonuclease V (Escherichia coli (strain K12), UniProt P04993+P07648+P08394); assay: RecBCD inhibition via phage-restricted bacterial growth – absorbance, V66 E. coli, mutant T4 phage, counter-screen for AddAB inhibitor project, dose response (AID 492957); type: functional, cell-based, Escherichia coli str. K-12 substr. MG1655
Sequence of Exodeoxyribonuclease V (P04993 whole entry): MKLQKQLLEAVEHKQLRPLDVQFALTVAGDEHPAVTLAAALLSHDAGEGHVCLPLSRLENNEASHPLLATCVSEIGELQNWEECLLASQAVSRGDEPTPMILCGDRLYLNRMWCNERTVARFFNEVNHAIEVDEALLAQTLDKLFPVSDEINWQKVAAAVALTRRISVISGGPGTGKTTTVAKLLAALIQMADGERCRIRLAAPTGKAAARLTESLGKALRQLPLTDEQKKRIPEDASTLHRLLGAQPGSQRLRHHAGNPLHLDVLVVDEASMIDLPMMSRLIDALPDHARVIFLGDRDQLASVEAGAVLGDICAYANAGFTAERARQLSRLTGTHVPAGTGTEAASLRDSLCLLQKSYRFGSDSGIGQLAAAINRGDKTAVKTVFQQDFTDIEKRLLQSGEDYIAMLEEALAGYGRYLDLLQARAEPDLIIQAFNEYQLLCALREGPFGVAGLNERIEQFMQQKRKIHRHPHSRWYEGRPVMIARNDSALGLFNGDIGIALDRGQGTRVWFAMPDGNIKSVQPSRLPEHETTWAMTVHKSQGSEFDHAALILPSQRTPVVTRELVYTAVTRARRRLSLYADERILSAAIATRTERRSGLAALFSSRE
Sequence of Exodeoxyribonuclease V (P07648 whole entry): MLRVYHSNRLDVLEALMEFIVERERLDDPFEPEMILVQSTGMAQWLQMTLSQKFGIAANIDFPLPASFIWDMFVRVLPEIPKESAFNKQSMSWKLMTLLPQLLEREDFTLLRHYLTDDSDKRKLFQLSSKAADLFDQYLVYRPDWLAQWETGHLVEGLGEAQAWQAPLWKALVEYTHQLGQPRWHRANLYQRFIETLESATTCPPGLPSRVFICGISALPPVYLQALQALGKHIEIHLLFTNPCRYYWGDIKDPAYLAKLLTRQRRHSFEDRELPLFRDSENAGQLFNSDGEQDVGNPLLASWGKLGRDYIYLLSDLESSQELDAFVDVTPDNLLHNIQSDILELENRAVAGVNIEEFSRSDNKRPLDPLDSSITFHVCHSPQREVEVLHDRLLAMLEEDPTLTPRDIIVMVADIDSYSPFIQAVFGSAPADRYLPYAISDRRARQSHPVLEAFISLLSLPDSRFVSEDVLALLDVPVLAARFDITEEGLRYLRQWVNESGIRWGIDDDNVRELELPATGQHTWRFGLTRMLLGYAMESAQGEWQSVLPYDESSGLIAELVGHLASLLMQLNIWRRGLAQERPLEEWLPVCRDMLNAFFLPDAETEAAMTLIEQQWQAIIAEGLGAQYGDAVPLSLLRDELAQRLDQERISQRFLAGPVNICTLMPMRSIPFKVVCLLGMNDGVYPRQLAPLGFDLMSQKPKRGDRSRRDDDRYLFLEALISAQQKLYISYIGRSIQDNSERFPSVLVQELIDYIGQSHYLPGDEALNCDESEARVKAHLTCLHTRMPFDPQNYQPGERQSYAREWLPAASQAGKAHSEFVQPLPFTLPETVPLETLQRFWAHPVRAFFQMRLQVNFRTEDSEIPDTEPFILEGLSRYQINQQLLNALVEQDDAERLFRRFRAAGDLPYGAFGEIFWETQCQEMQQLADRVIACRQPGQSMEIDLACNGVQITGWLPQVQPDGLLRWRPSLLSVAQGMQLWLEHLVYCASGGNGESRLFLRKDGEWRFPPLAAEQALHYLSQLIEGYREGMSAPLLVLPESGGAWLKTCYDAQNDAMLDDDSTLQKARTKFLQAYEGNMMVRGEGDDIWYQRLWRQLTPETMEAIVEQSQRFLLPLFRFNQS
Sequence of Exodeoxyribonuclease V (P08394 whole entry): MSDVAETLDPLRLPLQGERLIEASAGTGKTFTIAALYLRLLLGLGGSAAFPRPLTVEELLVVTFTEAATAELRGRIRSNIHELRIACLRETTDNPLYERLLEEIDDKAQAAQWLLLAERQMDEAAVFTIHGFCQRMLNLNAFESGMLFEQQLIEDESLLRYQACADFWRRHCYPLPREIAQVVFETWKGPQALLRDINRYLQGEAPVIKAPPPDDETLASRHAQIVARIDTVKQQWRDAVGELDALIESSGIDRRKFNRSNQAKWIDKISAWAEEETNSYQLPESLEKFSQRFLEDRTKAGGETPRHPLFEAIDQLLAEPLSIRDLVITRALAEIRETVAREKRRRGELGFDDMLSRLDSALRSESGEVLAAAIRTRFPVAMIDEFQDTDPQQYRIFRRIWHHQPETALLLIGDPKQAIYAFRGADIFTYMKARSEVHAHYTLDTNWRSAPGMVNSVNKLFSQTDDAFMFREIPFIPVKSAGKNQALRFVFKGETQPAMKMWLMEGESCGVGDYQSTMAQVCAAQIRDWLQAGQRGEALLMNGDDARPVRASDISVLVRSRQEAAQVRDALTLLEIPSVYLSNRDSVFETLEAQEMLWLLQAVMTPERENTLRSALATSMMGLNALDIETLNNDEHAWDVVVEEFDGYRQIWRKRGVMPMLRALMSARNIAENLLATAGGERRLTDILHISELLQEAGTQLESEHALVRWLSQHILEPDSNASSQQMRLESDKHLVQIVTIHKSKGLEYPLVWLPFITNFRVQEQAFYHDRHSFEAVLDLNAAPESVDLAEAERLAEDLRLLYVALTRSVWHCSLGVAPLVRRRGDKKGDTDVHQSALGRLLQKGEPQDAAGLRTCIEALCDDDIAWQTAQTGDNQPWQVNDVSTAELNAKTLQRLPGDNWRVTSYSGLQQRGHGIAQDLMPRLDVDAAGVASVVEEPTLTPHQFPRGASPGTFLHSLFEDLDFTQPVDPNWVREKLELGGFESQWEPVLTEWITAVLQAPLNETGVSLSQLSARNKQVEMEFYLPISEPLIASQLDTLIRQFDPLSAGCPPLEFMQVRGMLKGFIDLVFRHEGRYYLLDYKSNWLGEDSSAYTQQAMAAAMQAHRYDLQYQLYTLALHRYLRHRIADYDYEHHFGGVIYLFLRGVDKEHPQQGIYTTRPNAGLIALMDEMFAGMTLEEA

[14] = THP-1 cell cytotoxicity, dose response, cytotoxicity control for non-replicating M. tuberculosis project (AID 489025); type: functional
[15] = target: Intestinal-type alkaline phosphatase (Homo sapiens, UniProt P09923); assay: Dose Response confirmation of uHTS hits from a small molecule inhibitors of human intestinal alkaline phosphatase via a luminescent assay. [Related pubchem assays (depositor defined):AID2544, AID2574]; type: functional
Sequence of Intestinal-type alkaline phosphatase (P09923 whole entry): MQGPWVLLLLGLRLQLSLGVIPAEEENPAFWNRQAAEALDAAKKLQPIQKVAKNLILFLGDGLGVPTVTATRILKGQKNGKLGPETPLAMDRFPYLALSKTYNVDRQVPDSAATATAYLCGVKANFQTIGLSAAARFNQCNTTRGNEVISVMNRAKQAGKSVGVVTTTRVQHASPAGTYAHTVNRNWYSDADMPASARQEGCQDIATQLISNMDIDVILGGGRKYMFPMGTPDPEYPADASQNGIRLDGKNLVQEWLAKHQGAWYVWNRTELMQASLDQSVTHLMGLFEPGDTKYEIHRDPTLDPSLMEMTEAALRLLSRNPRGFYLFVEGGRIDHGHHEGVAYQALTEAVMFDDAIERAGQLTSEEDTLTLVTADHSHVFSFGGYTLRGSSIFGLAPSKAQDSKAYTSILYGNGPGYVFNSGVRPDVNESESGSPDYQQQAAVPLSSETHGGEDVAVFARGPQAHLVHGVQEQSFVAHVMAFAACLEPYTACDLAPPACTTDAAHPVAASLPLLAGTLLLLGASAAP

Nonstructural protein 1 = Nonstructural protein 1 (Influenza A virus, UniProt Q194T2); type: functional, Influenza A virus (A/California/07/2009(H1N1))
Sequence of Nonstructural protein 1 (Q194T2 whole entry): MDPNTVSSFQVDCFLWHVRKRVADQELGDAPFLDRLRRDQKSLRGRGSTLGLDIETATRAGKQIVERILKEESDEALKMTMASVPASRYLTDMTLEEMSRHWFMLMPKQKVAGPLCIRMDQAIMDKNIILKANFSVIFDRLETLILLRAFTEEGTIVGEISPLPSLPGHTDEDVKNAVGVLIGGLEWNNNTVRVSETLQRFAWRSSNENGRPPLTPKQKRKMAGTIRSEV

[16] = Counterscreen for AddAB inhibitors: absorbance-based bacterial cell-based high throughput dose response assay for inhibitors of bacterial viability. [Related pubchem assays (depositor defined):AID435030, AID449728, AID449731, AID488942, AID488955, AID488956]; type: functional
cells [17] = type: functional
HEK293 = assay: EBV LMP1 TES2 canonical NF-kB signalling blockers – cell-based, HEK293, luciferase, cherry-pick, dose response (AID 588343); type: functional; details: Homo sapiens
[18] = target: Heat shock protein HSP 90-alpha (Homo sapiens, UniProt P07900); type: functional, organism-based
BJ [19] = assay: growth inhibition of engineered Ras-driven BJ cells – cell-based, alamar blue fluorescence, cherrypicked samples, dose response (AID 2631); type: functional; details: Homo sapiens;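 also: confirmatory dose-response assay in RAS-dependent BJ fibroblasts engineered with TERT, LT and ST, with cytotoxicity read by fluorescence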
INS1 = assay: INS-1E survival protection against cytokine death – cell-based, luminescence, retest, dose response (AID 449756); type: functional; details: Rattus norvegicus;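 also: cell death triggered by IL-1 beta plus TNF-alpha plus IFN-gamma mixture; protective hits raise ATP signal compared with cytokine alone wells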

Sequence of G-protein coupled receptor 35 (Q9HC97 whole entry): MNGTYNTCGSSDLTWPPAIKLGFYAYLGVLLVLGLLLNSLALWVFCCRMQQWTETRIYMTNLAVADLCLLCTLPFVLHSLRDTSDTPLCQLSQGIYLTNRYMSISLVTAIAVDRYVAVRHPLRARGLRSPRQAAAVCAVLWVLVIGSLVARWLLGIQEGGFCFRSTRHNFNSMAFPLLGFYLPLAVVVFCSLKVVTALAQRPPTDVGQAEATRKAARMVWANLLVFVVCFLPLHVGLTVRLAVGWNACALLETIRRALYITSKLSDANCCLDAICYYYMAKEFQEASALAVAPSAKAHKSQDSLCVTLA

For `CCOc1ccc(NC(=O)CSc2nc3ccsc3c(=O)n2Cc2ccc(C(=O)O)cc2)cc1`, the IC50 [1] was 14.5 µM (not active) and the IC50 [2] was > 32 µM (inactive).

In the case of `Oc1ccccc1C1CC(c2cccs2)=NC(c2cccc(Br)c2)N1` (stereo unspecified), the AC50 [3] is reported as 21.1 µM (active) and the AC50 [4] is reported as 23.9 µM (active).

For `COc1ccccc1-c1coc2c(CN3CCN(C)CC3)c(O)ccc2c1=O`, the AC50 (Trypsin) was 28.3 µM (active), the AC50 (CAAX prenyl protease 2) was 97.9 µM (active) and the AC50 (CAAX prenyl protease 1) was 1.57 µM (active).

With `Cn1nnnc1N=N/C(=N/Nc1ccccc1)c1ccccc1` the EC50 [5] was > 120 µM (not active), the EC50 (BJ [6]) was 5.67 µM (active) and the EC50 (cells [7]) was 8.13 µM (active). For the same compound, the EC50 [8] was > 120 µM (not active), the EC50 [9] was 8.09 µM (active) and the EC50 (BJ [10]) was 2.17 µM (active). For the same compound, the EC50 (cells [11]) was > 350 µM (not active), the EC50 (BJ [12]) was 4.63 µM (inconclusive) and the EC50 [13] was 7.59 µM (inconclusive). For the same compound, the IC50 (Exodeoxyribonuclease V) was > 119 µM (inactive), the CC50 [14] was < 0.078 µM (active) and the IC50 [15] was > 100 µM (inactive). The IC50 (Nonstructural protein 1) was 26.5 µM (active), the IC50 [16] was > 119 µM (inactive) and the IC50 (cells [17]) was 26.6 µM (active). The AC50 (HEK293) was 2.69 µM (active), the AC50 [18] was 3.55 µM (active) and the EC50 (BJ [19]) was 0.627 µM (inconclusive). The AC50 (INS1) was 0.408 µM (active).
